Experiments:
A2780 cells = assay: Test for induction of differentiation in A2780 cells (ALP activity, ALPmin); type: cell-based, human; conditions: for minimal effective concentration: Homo sapiens, 72 h, A2780 cells, 3 days incubation, minimum concentration of the drug inducing increase of ALP activity
Summary of the method: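 A2780 cells seeded at 15,000/well, test compound added in serial dilution the next day. ALP reaction stopped with 3N NaOH and absorbance read at 405 nm; ALPmin is the lowest concentration raising ALP activity.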

[1] = test system: Murine myeloid leukemia cells WEHI-3; assay: Antitumor test, life prolongation in mice inoculated with WEHI-3 cells (T/C); type: in vivo, Balb/C mouse; conditions: oral once a day Day 1 to 4 and Day 7 to 11, ratio of survival days to control
Description: Murine myeloid leukemia cells WEHI-3 (1 to 3×10^6 cells) were intraperitoneally inoculated to a Balb/C mouse, and administration of a test compound was initiated on the next day. The day was Day 1 and subsequently the drug was orally administered once a day in Day 1 to 4 and in Day 7 to 11. Survival days after inoculation were observed, which were used to calculate the ratio of the survival days for the test coompound group to those for the control group (T/C, %). The ratio was used to evaluate a life prolongation effect.

Structure (SMILES): Nc1ccccc1NC(=O)c1ccc(CNC(=O)COc2cccnc2)cc1 [Example 46, N-(2-aminophenyl)-4-[N-(pyridin-3-yl)oxyacetylaminomethyl]benzamide]
- differentiation-inducing activity (A2780 cells): high
- minimal effective concentration (A2780 cells): 0.1 µM
- T/C ([1]; Dose 32 μmol/kg): 141%
- melting point: 154 to 155 °C

Structure (SMILES): Nc1ccccc1NC(=O)c1ccc(CNC(=O)OCc2cccnc2)cc1 [Example 48, N-(2-aminophenyl)-4-[N-(pyridin-3-yl)methoxycarbonylaminomethyl]benzamide]
- differentiation-inducing activity (A2780 cells): high
- minimal effective concentration (A2780 cells): 0.1 µM
- T/C ([1]; Dose 130 μmol/kg): 190%

Structure (SMILES): Nc1ccccc1NC(=O)c1ccc(NC(=O)COCc2cccnc2)cc1 [Example 130, N-(2-aminophenyl)-4-[(pyridin-3-yl)methoxyacetylamino]benzamide]
- minimal effective concentration (A2780 cells): 0.03 µM
- T/C ([1]; Dose 130 μmol/kg): 189%

Structure (SMILES): Nc1ccccc1NC(=O)c1ccc(CNC(=O)OCc2ccc(Cl)nc2)cc1 [Example 59, N-(2-aminophenyl)-4-[N-(6-chloropyridin-3-yl)methoxycarbonylaminomethyl]benzamide]
- minimal effective concentration (A2780 cells): 3 µM
- melting point: 180 to 185 °C

Structure (SMILES): COc1ccc(N)c(NC(=O)c2ccc(CNC(=O)COc3cccnc3)cc2)c1 [Example 33, N-(2-amino-5-methoxyphenyl)-4-[N-(pyridin-3-yl)oxyacetylaminomethyl]benzamide]
- minimal effective concentration (A2780 cells): 0.3 µM
- melting point: 141 to 144 °C

Structure (SMILES): Nc1ccccc1NC(=O)c1ccc(CNC(=O)COc2cncc(Cl)c2)cc1 [Example 32, N-(2-aminophenyl)-4-[N-(5-chloropyridin-3-yl)oxyacetylaminomethyl]benzamide]
- minimal effective concentration (A2780 cells): 3 µM
- melting point: 199 to 201 °C

Structure (SMILES): Nc1ccccc1NC(=O)c1ccc(CNC(=O)Cc2cccnc2)cc1 [Example 29, N-(2-aminophenyl)-4-[N-(pyridin-3-yl)acetylaminomethyl]benzamide]
- minimal effective concentration (A2780 cells): 10 µM
- melting point: 127 °C

Structure (SMILES): Nc1ccccc1NC(=O)c1ccc(CNC(=O)OCc2cnccn2)cc1 [Example 77, N-(2-aminophenyl)-4-[N-(pyrazin-2-yl)methoxycarbonylaminomethyl]benzamide]
- minimal effective concentration (A2780 cells): 3 µM
- melting point: 182 °C

Structure (SMILES): COc1ccc(C(=O)NCc2ccc(C(=O)Nc3ccccc3N)cc2)cc1 [Example 6, N-(2-aminophenyl)-4-[N-(4-methoxybenzoyl)aminomethyl]benzamide]
- minimal effective concentration (A2780 cells): 1 µM
- melting point: 149 to 151 °C

Structure (SMILES): Nc1ccccc1NC(=O)c1ccc(CNC(=O)c2ccc(Cl)nc2)cc1 [Example 18, N-(2-aminophenyl)-4-[N-(6-chloronicotinoyl)aminomethyl]benzamide]
- minimal effective concentration (A2780 cells): 3 µM
- melting point: 205 to 208 °C (dec.)

Structure (SMILES): Nc1ccccc1NC(=O)c1ccc(-n2cc(COCc3ccccn3)oc2=O)cc1 [Example 142, N-(2-aminophenyl)-4-[5-(pyridin-2-yl)methyloxymethyl-1,3-oxazolin-2-on-3-yl]benzamide]
- minimal effective concentration (A2780 cells): 0.1 µM
- melting point: 172 to 174 °C

Structure (SMILES): Nc1ccccc1NC(=O)c1ccc(-n2cc(COc3cccc([N+](=O)[O-])c3)oc2=O)cc1 [Example 141, N-(2-aminophenyl)-4-[5-(3-nitrophenoxy)methyl-1,3-oxazolin-2-on-3-yl]benzamide]
- minimal effective concentration (A2780 cells): 1 µM
- melting point: 230 °C (dec.)

Structure (SMILES): Nc1ccccc1NC(=O)c1ccc(CNC(=O)CC(=O)c2cccnc2)cc1 [Example 34, N-(2-aminophenyl)-4-[N-[3-(pyridin-3-yl)-1,3-dioxopropyl]aminomethyl]benzamide]
- minimal effective concentration (A2780 cells): 0.1 µM
- melting point: 204 to 206 °C

Structure (SMILES): CN1CCCC(COC(=O)NCc2ccc(C(=O)Nc3ccccc3N)cc2)C1 (stereo not drawn) [Example 65, N-(2-aminophenyl)-4-[N-(1-methylpiperidin-3-yl)methoxycarbonylaminomethyl]benzamide]
- minimal effective concentration (A2780 cells): 3 µM
- melting point: 130 to 135 °C

Structure (SMILES): Nc1ccccc1NC(=O)c1ccc(CNC(=O)c2ccc(C(F)(F)F)cc2)cc1 [Example 9, N-(2-aminophenyl)-4-[N-(4-trifluoromethylbenzoyl)aminomethyl]benzamide]
- minimal effective concentration (A2780 cells): 1 µM
- melting point: 243 to 246 °C

Structure (SMILES): Nc1ccccc1COC(=O)NCc1ccc(C(=O)Nc2ccccc2N)cc1 [Example 71, N-(2-aminophenyl)-4-[N-(2-aminophenyl)methoxycarbonylaminomethyl]benzamide]
- minimal effective concentration (A2780 cells): 10 µM
- melting point: 149 to 151 °C (dec.)

Structure (SMILES): Nc1ccccc1NC(=O)c1ccc(CNC(=O)OCCc2cccnc2)cc1 [Example 54, N-(2-aminophenyl)-4-[N-[2-(pyridin-3-yl)ethoxycarbonyl]aminomethyl]benzamide]
- minimal effective concentration (A2780 cells): 1 µM
- melting point: 120 to 125 °C

Structure (SMILES): Nc1ccccc1NC(=O)c1ccc(NC(=O)COc2cccnc2)cc1 [Example 120, N-(2-aminophenyl)-4-[N-(pyridin-3-yl)oxyacetylamino]benzamide]
- minimal effective concentration (A2780 cells): 0.3 µM
- melting point: 175 to 179 °C

Structure (SMILES): Nc1ccccc1NC(=O)c1ccc(NC(=O)CNCc2cccnc2)cc1 [Example 115, N-(2-aminophenyl)-4-[[N-(pyridin-3-yl)methylamino]acetylamino]benzamide]
- minimal effective concentration (A2780 cells): 0.01 µM
- melting point: 160 °C (dec.)

Structure (SMILES): Cl.Nc1ccccc1NC(=O)c1ccc(CNC(=O)c2ccccc2)cc1 [Example 1, N-(2-aminophenyl)-4-(N-benzoylaminomethyl)benzamide hydrochloride]
- minimal effective concentration (A2780 cells): 1 µM
- melting point: 206 to 209 °C

Structure (SMILES): O=C(Cc1cccnc1)NCc1ccc(C(=O)Nc2ccccc2O)cc1 [Example 42, N-(2-hydroxyphenyl)-4-[N-(pyridin-3-yl)acetylaminomethyl]benzamide]
- minimal effective concentration (A2780 cells): 10 µM
- melting point: 201 to 202 °C

Structure (SMILES): Nc1ccccc1NC(=O)c1ccc(CNC(=O)OCc2cncs2)cc1 [Example 63, N-(2-aminophenyl)-4-[N-(thiazol-5-yl)methoxycarbonylaminomethyl]benzamide]
- minimal effective concentration (A2780 cells): 3 µM
- melting point: 168 to 175 °C

Structure (SMILES): COc1cncc(COC(=O)NCc2ccc(C(=O)Nc3ccccc3N)cc2)c1 [Example 76, N-(2-aminophenyl)-4-[N-(5-methoxypyridin-3-yl)methoxycarbonylaminomethyl]benzamide]
- minimal effective concentration (A2780 cells): 1 µM
- melting point: 169 to 170 °C

Structure (SMILES): COc1ccc(O)c(NC(=O)c2ccc(CNC(=O)OCc3cccnc3)cc2)c1 [Example 85, N-(2-hydroxy-5-methoxyphenyl)-4-[N-(pyridin-3-yl)methoxycarbonylaminomethyl]benzamide]
- minimal effective concentration (A2780 cells): 3 µM
- melting point: 175 to 176 °C

Structure (SMILES): Nc1ccccc1CC(=O)Nc1ccc(C(=O)Nc2ccccc2N)cc1 [Example 105, N-(2-aminophenyl)-4-[(2-aminophenylacetyl)amino]benzamide]
- minimal effective concentration (A2780 cells): 1 µM
- melting point: 177 to 182 °C (dec.)

Structure (SMILES): Nc1ccccc1NC(=O)c1ccc(-n2cc(COCc3cccnc3)oc2=O)cc1 [Example 140, N-(2-aminophenyl)-4-[5-(pyridin-3-yl)methyloxymethyl-1,3-oxazolin-2-on-3-yl]benzamide]
- minimal effective concentration (A2780 cells): 0.3 µM
- melting point: 160 to 164 °C (dec.)

Structure (SMILES): Cc1cccc(COC(=O)NCc2ccc(C(=O)Nc3ccccc3N)cc2)n1 [Example 53, N-(2-aminophenyl)-4-[N-(6-methylpyridin-2-yl)methoxycarbonylaminomethyl]benzamide]
- minimal effective concentration (A2780 cells): 3 µM
- melting point: 138 °C

Structure (SMILES): Cn1cncc1COC(=O)NCc1ccc(C(=O)Nc2ccccc2N)cc1 [Example 74, N-(2-aminophenyl)-4-[N-(1-methylimidazol-5-yl)methoxycarbonylaminomethyl]benzamide]
- minimal effective concentration (A2780 cells): 10 µM
- melting point: 162 to 165 °C (dec.)

Structure (SMILES): Nc1ccccc1NC(=O)c1ccc(CNC(=O)c2cccnc2Cl)cc1 [Example 17, N-(2-aminophenyl)-4-[N-(2-chloronicotinoyl)aminomethyl]benzamide]
- minimal effective concentration (A2780 cells): 3 µM
- melting point: 176 to 178 °C (dec.)

Structure (SMILES): Cl.Nc1ccccc1NC(=O)c1ccc(-n2cc(COCc3ccccc3)oc2=O)cc1 [Example 138, N-(2-aminophenyl)-4-(5-benzyloxymethyl-1,3-oxazolin-2-on-3-yl)benzamide hydrochloride]
- minimal effective concentration (A2780 cells): 1 µM
- melting point: 181 to 183 °C

Structure (SMILES): Nc1ccccc1NC(=O)c1ccc(NC(=O)Cc2ccccc2)cc1 [Example 100, N-(2-aminophenyl)-4-(phenylacetylamino)benzamide]
- minimal effective concentration (A2780 cells): 1 µM
- melting point: 232 to 237 °C

Structure (SMILES): COc1cc(C(=O)NCc2ccc(C(=O)Nc3ccccc3N)cc2)cc(OC)c1OC [Example 7, N-(2-aminophenyl)-4-[N-(3,4,5-trimethoxybenzoyl)aminomethyl]benzamide]
- minimal effective concentration (A2780 cells): 1 µM
- melting point: 208 to 210 °C (dec.)

Structure (SMILES): Nc1ccccc1NC(=O)c1ccc(CNC(=O)CCC(=O)c2cccnc2)cc1 [Example 31, N-(2-aminophenyl)-4-[N-[4-(pyridin-3-yl)-1,4-dioxobutyl]aminomethyl]benzamide]
- minimal effective concentration (A2780 cells): 10 µM
- melting point: 145 to 147 °C (dec.)

Source: US7317028B2, “Cell differentiation inducer” (Schering Aktiengesellschaft, priority 1996, dated 2008)
